In patent US20060009438A2, “MODIFIED, HYDROXY-SUBSTITUTED AROMATIC STRUCTURES HAVING CYTOPROTECTIVE ACTIVITY” (Washington University, priority 2000, published 2006):
Like-named read-outs stand apart in the source and are kept apart here.

Experiments:
[1] = tested on: HT-22 cells (immortalized hippocampal neurons); experiment: HT-22 Cell Neuroprotection Assay (glutamate insult, calcein AM viability); assay type: cell-based, murine; conditions: ~16 h
Experimental: HT-22 cells (immortalized hippocampal neurons of murine origin) were maintained in DMEM media (Life Technologies, Inc., Gaitherburg, MD) supplemented with 10% charcoal-stripped FBS (HyClone Laboratories, Inc., Logan, UT) and 20 µg/mL gentamycin, according to standard culture conditions.
Cells were plated at a density of 5,000 cells/well in clear-bottomed Nunc 96-well plates (Fisher Scientific, Orlando, FL) and allowed to incubate overnight. Steroids dissolved in DMSO were added at concentrations ranging from 0.01-10 µM and were co-administered with glutamate (10 mM or 20 mM). DMSO was used at concentrations of 0.1% vol/vol as a vehicle control and had no discernible effect on cell viability. After ~16 h of glutamate exposure, cells were rinsed with PBS, pH 7.4, and viability was assessed by the addition of 25 µM calcein AM (Molecular Probes, Inc., Eugene, OR) in PBS for 15 min at room temperature. Fluorescence was determined (excitation 485, emission 530) using a fluorescence FL600 microplate reader (Biotek, Winooski, VT). Cells that were lysed by addition of methanol were used for blank readings. All data were normalized to % cell death, as calculated by (control value - insult value)/control value x 100.

[2] = tested on: cortical neurons; experiment: NMDA-induced neuronal cell death in mixed cortical neuron/glial cultures (Trypan blue counting); assay type: cell-based, mouse
Experimental: Glial cell cultures: Glial cell cultures were prepared from P1 mice. Briefly, cortex from P1 mice were dissected and digested with 0.025% trypsin for 30-40 min. After trituration, the cells were plated on poly-D-lysine/laminin coated glass-bottom dishes at a density of approximately 5 x 10^6 cells per dish. Cells were grown for 7-10 days in Eagle's minimal essential medium supplemented with 10% fetal bovine serum, 10% horse serum, 10 ng/ml epidermal growth factor, 2 mM glutamine and 20 mM glucose. Cultures were kept at 37°C in a humidified CO2 atmosphere until they reached confluence. Cultures were then used to support neurons (see below).
Cortical neuronal cultures: Cortical neurons were prepared from E15-16 mouse embryos. Dissociated cortical cells (at a density of 5x 10^6 cells per dish) were plated on a layer of confluent glial cells (7-10 days in vitro), into Eagle's minimal essential medium supplemented with 5% fetal bovine serum, 5% horse serum, 2 mM glutamine, and 21 mM glucose. Cultures were kept at 37°C in a humidified 5% CO2 atmosphere. After 3-5 days in vitro, non-neuronal cell division was halted by exposure to 10^-5 M cytosine arabinoside for 2 days, and cultures were shifted to a growth medium identical to the plating medium but lacking […]. Cultures 9-14 days in vitro were used for the experiments.
Neuronal cell death: Mixed neuron/glial cultures were exposure to NMDA (30 µM) for 24 hours in medium stock (MS) (minimal essential medium with 15.8 mM NaHCO3 and 20 mM glucose, pH 7.4) at 37°C. Cell death was assessed […] by counting cells that stained with Trypan blue (0.4% for 10 minutes at 37°C). Stained neurons were counted from three random fields per dish. For the experiments to test the neuroprotective effect of the 17-β-estradiol and the adamantyl-modified analog thereof, cultures were incubated with the drugs for various time periods prior to when NMDA was added to the medium. Results

[3] = 10 mM glutamate co-administered, read-out: Sterioid concentration needed to protect 50% of neurons killed by 10 mM Glutamate ED50
[4] = 20 mM glutamate co-administered, read-out: Sterioid concentration needed to protect 50% of neurons killed by 20 mM Glutamate ED50

Row | SMILES | EC50 [1, 3] | EC50 [1, 4] | also measured
1 | C[C@@]12CC[C@H]3c4ccc(O)cc4CC[C@@H]3[C@H]1CC[C@H]2O (single isomer, unassigned; ent-17) [Ent-(17 β)-Estradiol, ent-17β-estradiol] | 1070 nM | 1270 nM | 
2 | Cc1c(O)c(C23CC4CC(CC(C4)C2)C3)cc2c1CC[C@@H]1[C@@H]2CC[C@]2(C)C(=O)CC[C@@H]12 [ZYC-26, 2-(1-admantanyl)-3-hydroxy-4-methylestra-1,3,5(10)-trien-17-one] |  |  | melting point: 262 to 263 °C
3 | CC12CCC3c4cc(C56CC7CC(CC(C7)C5)C6)c(O)cc4CCC3C1CCC2O (stereo not drawn) [ZYC-33, Ent-(17β)-2-(1-Adamantyl)estra-1,3,5(10)-triene-3,17-diol] | 65 nM | 19 nM | 
4 | Cc1c(O)c(C(C)(C)C)cc2c1CC[C@@H]1[C@@H]2CC[C@]2(C)C(=O)CC[C@@H]12 [ZYC-25, 2-(1,1-Dimethylethyl)-3-hydroxy-4-methylestra-1,3,5(10)-trien-17-one] |  |  | melting point: 190 to 192 °C
5 | C[C@]12CC[C@@H]3c4ccc(O)cc4CC[C@H]3[C@@H]1CC[C@H]2O [17 α-Estradiol, 17α-estradiol] | 3100 nM | 16100 nM | 
6 | C[C@]12CC[C@@H]3c4ccc(O)cc4CC[C@H]3[C@@H]1CC[C@@H]2O [17-β Estradiol, 17-β-estradiol] | 2210 nM | 3010 nM | reduction of neuronal loss due to NMDA exposure ([2]; 10 µM drug, pre-incubation, 30 µM NMDA for 24 hours (Figure 5)): about 15%
7 | CC(C)(C)c1cc2c(cc1O)CCC1C2CCC2(C)C(O)CCC12 (stereo not drawn) [ZYC-34, Ent-(17β)-2-(1,1-dimethylethyl)estra-1,3,5(10)-triene-3,17-diol] | 240 nM | 260 nM | 
8 | C[C@]12CC[C@@H]3c4cc(C56CC7CC(CC(C7)C5)C6)c(O)cc4CC[C@H]3[C@@H]1CC[C@@H]2O [ZYC-5, (17 β)-2-(1-Adamantyl)-estra-1,3,5(10)-triene-3,17-diol] |  |  | protective effect against NMDA-induced neuronal death ([2]; 100 nM dosage, 30 µM NMDA for 24 hours (Figure 5)): 10%; protection from neuronal death due to NMDA exposure ([2]; 1 µM drug, pre-incubation, 30 µM NMDA for 24 hours (Figure 5)): about half; effectiveness relative to 17-β-estradiol ([2]; 1 µM versus 10 µM 17-β-estradiol (one-tenth the dosage)): more than three times more effective; neuronal survival versus pre-incubation time ([2]; 1 µM, 1-12 hours pre-incubation prior to NMDA exposure (Figure 6)): no significant difference; neuronal protection versus pre-incubation time ([2]; 1 µM, 24 hours pre-incubation prior to NMDA exposure (Figure 6)): best protection results
